In US20100184815A1 (priority 2008, published 2010):

Assays:
Type in all cases: cell-based
Gal-4 hPPARβ/δ = molecular target: T1, Gal-4 hPPARβ/δ (Homo sapiens, UniProt Q03181); experiment: Gal4-hPPARδ transient transfection reporter assay in Cos cells; details: luciferase reporter, 24 hours with compound, scale 1-5, read-out: Gal-4 hPPAR β/δ EC50 (scaled number)
T1 construct: Plasmids pGal4-hPPARα, pGal4-hPPARγ, pGal4-hPPARδ and pG5-TK-pGL3 were constructed as previously described by Staels, Bart, et al., Nature 1998 Jun; 25
T1 sequence (Q03181 171-441 limits assumed): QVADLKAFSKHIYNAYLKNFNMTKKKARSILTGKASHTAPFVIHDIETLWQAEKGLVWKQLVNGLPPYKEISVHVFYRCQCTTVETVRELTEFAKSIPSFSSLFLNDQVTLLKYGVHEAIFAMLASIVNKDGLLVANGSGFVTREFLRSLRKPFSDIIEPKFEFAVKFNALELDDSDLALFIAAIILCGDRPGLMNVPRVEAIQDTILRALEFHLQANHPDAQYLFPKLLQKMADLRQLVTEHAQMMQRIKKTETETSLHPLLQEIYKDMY
Method: (§1) Construction of recombinant plasmids. Plasmids pGal4-hPPARα, pGal4-hPPARγ, pGal4-hPPARδ and pG5-TK-pGL3 were constructed as previously described by Staels, Bart, et al., Nature 1998 Jun. 25; 393 (6687): 790-793, by Staels (Institut Pasteur de Lille, FR).
(§2) Transient transfection assays. Cos cells were seeded in 60-mm dishes at a density of 5.5×10^5 cells/dish in Dulbecco's modified Eagle's medium (DMEM) supplemented with 10% fetal calf serum (FCS) and incubated at 37° C. for 24 hours before transfection. Cells were transfected in Opti-MEM (Gibco; Invitrogen, Carlsbad, Calif.) without FCS for 3 hours at 37° C., using polyethylenimine, with reporter and expression plasmids. The plasmid pBluescript (Stratagene, La Jolla, Calif.) was used as carrier DNA to set the final amount of DNA to 5.5 μg/dish. The pCMV-b-galactosidase expression plasmid was cotransfected as a control for transfection efficiency. Transfection was stopped by the addition of DMEM supplemented with 10% FCS, and cells were then incubated at 37° C. After 16 hours, cells were trypsinized and seeded in 96-well plates at the density of 2×10^4 cells/well and incubated for 6 hours in 10% FCS-containing DMEM. Cells were then incubated for 24 hours in DMEM containing 0.2% FCS and increasing concentrations of the compound tested or vehicle (DMSO). At the end of the experiment, cells were washed once with ice-cold PBS, lysed and the luciferase and b-galactosidase assays were performed in a luminometer and spectrophotomer. Transfection efficiencies were normalized with the b-galactosidase activity assay. Half-maximal effective concentration (EC50) was estimated using Prism software (GraphPad). All transfection experiments were performed at least three times.
(§3) In the following tables, proprietary compound EC50 values for hPPAR α, β, δ and γ are shown. The EC50 value is the concentration of a drug that induces a response halfway between the baseline and maximum, and is commonly used as a measure of drug potency. EC50 values are reported on a scale of 1 through 5, wherein the value scale is defined for each receptor as follows: […]

Gal-4 hPPARα = molecular target: T2, Gal-4 hPPARα (Homo sapiens, UniProt Q07869); experiment: Gal4-hPPARα transient transfection reporter assay in Cos cells; details: luciferase reporter, 24 hours with compound, scale 1-5, read-out: Gal-4 hPPAR α EC50 (scaled number)
T2 construct: Plasmids pGal4-hPPARα, pGal4-hPPARγ, pGal4-hPPARδ and pG5-TK-pGL3 were constructed as previously described by Staels, Bart, et al., Nature 1998 Jun; 25
T2 sequence (Q07869 200-468 limits assumed): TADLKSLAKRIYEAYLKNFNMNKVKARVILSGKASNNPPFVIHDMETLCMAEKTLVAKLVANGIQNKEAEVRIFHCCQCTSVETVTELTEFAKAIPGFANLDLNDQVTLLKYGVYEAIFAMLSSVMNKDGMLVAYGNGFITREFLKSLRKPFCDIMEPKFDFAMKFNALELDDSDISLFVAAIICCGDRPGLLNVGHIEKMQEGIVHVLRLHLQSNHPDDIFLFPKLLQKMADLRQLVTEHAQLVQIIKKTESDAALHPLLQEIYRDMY
Method: as §1, §2, §3

Gal-4 hPPARγ = molecular target: T3, Gal-4 hPPARγ (Homo sapiens, UniProt P37231); experiment: Gal4-hPPARγ transient transfection reporter assay in Cos cells; details: luciferase reporter, 24 hours with compound, scale 1-5, read-out: Gal-4 hPPAR γ EC50 (scaled number)
T3 construct: Plasmids pGal4-hPPARα, pGal4-hPPARγ, pGal4-hPPARδ and pG5-TK-pGL3 were constructed as previously described by Staels, Bart, et al., Nature 1998 Jun; 25
T3 sequence (P37231 238-505 limits assumed): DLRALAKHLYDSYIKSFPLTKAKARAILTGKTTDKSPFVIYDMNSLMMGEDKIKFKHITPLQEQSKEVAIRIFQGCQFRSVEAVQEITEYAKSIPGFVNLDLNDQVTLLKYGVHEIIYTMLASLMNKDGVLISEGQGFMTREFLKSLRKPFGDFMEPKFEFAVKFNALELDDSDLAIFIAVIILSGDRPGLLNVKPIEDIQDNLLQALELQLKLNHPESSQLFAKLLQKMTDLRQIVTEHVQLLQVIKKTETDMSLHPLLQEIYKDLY
Method: as §1, §2, §3

EC50 (Gal-4 hPPARβ/δ) [nM]	EC50 (Gal-4 hPPARα) [nM]	EC50 (Gal-4 hPPARγ) [nM]	Compound
> 1000	1 to 50	> 1000	CCCCCCn1c(COC(=O)c2ccc(SC(C)(C)C(=O)O)cc2)nn(Cc2ccc(C(OC)(C(F)(F)F)C(F)(F)F)cc2)c1=O [Compound 201, 2-(4-(((1-(4-(1,1,1,3,3,3-hexafluoro-2-methoxypropan-2-yl)benzyl)-4-hexyl-5-oxo-4,5-dihydro-1H-1,2,4-triazol-3-yl)methoxy)carbonyl)phenylthio)-2-methylpropanoic acid]
> 1000	1 to 50	> 1000	CCCn1c(COC(=O)c2ccc(SC(C)(C)C(=O)O)cc2)nn(Cc2ccc(Br)cc2)c1=O [Compound 164, 2-(4-(((1-(4-bromobenzyl)-5-oxo-4-propyl-4,5-dihydro-1H-1,2,4-triazol-3-yl)methoxy)carbonyl)phenylthio)-2-methylpropanoic acid]
> 1000	51 to 200	> 1000	CCCn1c(COC(=O)c2ccc(SC(C)(C)C(=O)O)cc2)nn(Cc2ccc(F)cc2)c1=O [Compound 165, 2-(4-(((1-(4-fluorobenzyl)-5-oxo-4-propyl-4,5-dihydro-1H-1,2,4-triazol-3-yl)methoxy)carbonyl)phenylthio)-2-methylpropanoic acid]
> 1000	51 to 200	> 1000	CC(C)(Sc1ccc(C(=O)OCCc2cn(Cc3ccc(C(C)(C)C)cc3)nn2)cc1)C(=O)O [Compound 144, 4-(1-Carboxy-1-methyl-ethylsulfanyl)-benzoic acid 2-[1-(4-tert-butyl-benzyl)-1H-1,2,3-triazol-4-yl]-ethyl ester]
1 to 50	51 to 200	201 to 999	Cc1ccc(-n2cc(COC(=O)c3ccc(OC(C)(C)C(=O)O)cc3)c(-c3ccccc3)n2)cc1 [Compound 17, 2-methyl-2-(4-(((3-phenyl-1-p-tolyl-1H-pyrazol-4-yl)methoxy)carbonyl)phenoxy)propanoic acid]
> 1000	201 to 999	> 1000	CCCn1c(COC(=O)c2ccc(OC(C)(C)C(=O)O)cc2)nn(Cc2ccc(SC(F)(F)F)cc2)c1=O [Compound 210, 2-methyl-2-(4-(((5-oxo-4-propyl-1-(4-(trifluoromethylthio)benzyl)-4,5-dihydro-1H-1,2,4-triazol-3-yl)methoxy)carbonyl)phenoxy)propanoic acid]

The next lines start with the compound.

Compound	EC50 (Gal-4 hPPARβ/δ) [nM]	EC50 (Gal-4 hPPARα) [nM]	EC50 (Gal-4 hPPARγ) [nM]
CCn1c(COC(=O)c2ccc(SC(C)(C)C(=O)O)cc2)nn(Cc2ccc(C(C)(C)C)cc2)c1=O [Compound 195, 2-(4-(((1-(4-tert-butylbenzyl)-4-ethyl-5-oxo-4,5-dihydro-1H-1,2,4-triazol-3-yl)methoxy)carbonyl)phenylthio)-2-methylpropanoic acid]	> 1000	1 to 50	> 1000
CC(C)(Sc1ccc(C(=O)OCc2cnn(Cc3ccc(OC(F)(F)F)cc3)c2)cc1)C(=O)O [Compound 32, 2-methyl-2-(4-(((1-(4-(trifluoromethoxy)benzyl)-1H-pyrazol-4-yl)methoxy)carbonyl)phenylthio)propanoic acid]	> 1000	1 to 50	> 1000
C[C@H](OC(=O)c1ccc(SC(C)(C)C(=O)O)cc1)c1cn(Cc2ccc(C(F)(F)F)cc2)nn1 [Compound 97, (S)-2-methyl-2-(4-((1-(1-(4-(trifluoromethyl)benzyl)-1H-1,2,3-triazol-4-yl)ethoxy)carbonyl)phenylthio)propanoic acid]	> 1000	201 to 999	> 1000
CC(C)(Sc1ccc(C(=O)OCc2cnn(Cc3ccc(C(C)(C)C)cc3)c2)cc1)C(=O)O [Compound 6, 2-(4-(((1-(4-tert-butylbenzyl)-1H-pyrazol-4-yl)methoxy)carbonyl)phenylthio)-2-methylpropanoic acid]	> 1000	1 to 50	201 to 999
C[C@@H](OC(=O)c1ccc(SC(C)(C)C(=O)O)cc1)c1cn(Cc2cccc(C(F)(F)F)c2)nn1 [Compound 139, 4-(1-Carboxy-1-methyl-ethylsulfanyl)-benzoic acid (R)-1-[1-(3-trifluoromethyl-benzyl)-1H-1,2,3-triazol-4-yl]-ethyl ester]	> 1000	1 to 50	> 1000
CC(C)(Sc1ccc(C(=O)OCc2cnn(Cc3cccc(C(F)(F)F)c3)c2)cc1)C(=O)O [Compound 30, 2-methyl-2-(4-(((1-(3-(trifluoromethyl)benzyl)-1H-pyrazol-4-yl)methoxy)carbonyl)phenylthio)propanoic acid]	> 1000	1 to 50	> 1000
C[C@@H](OC(=O)c1ccc(SC(C)(C)C(=O)O)cc1)c1cn(Cc2cc(C(F)(F)F)cc(C(F)(F)F)c2)nn1 [Compound 140, 4-(1-Carboxy-1-methyl-ethylsulfanyl)-benzoic acid (R)-1-[1-(3,5-bis-trifluoromethyl-benzyl)-1H-1,2,3-triazol-4-yl]-ethyl ester]	> 1000	1 to 50	> 1000
CC(C)(Sc1ccc(C(=O)OCc2cnn(Cc3ccc(F)c(F)c3)c2)cc1)C(=O)O [Compound 24, 2-(4-(((1-(3,4-difluorobenzyl)-1H-pyrazol-4-yl)methoxy)carbonyl)phenylthio)-2-methylpropanoic acid]	> 1000	51 to 200	> 1000
CCCn1c(COC(=O)c2ccc(SC(C)(C)C(=O)O)cc2)nn(Cc2ccc(SC(F)(F)F)cc2)c1=O [Compound 179, 2-methyl-2-(4-(((5-oxo-4-propyl-1-(4-(trifluoromethylthio)benzyl)-4,5-dihydro-1H-1,2,4-triazol-3-yl)methoxy)carbonyl)phenylthio)propanoic acid]	> 1000	51 to 200	> 1000
CC(C)(Oc1ccc(C(=O)OCc2cnn(Cc3ccc4c(c3)C(C)(C)CCC4(C)C)c2)cc1)C(=O)O [Compound 28]	> 1000	201 to 999	> 1000
C[C@H](Cc1cn(Cc2ccc(C(C)(C)C)cc2)nn1)OC(=O)c1ccc(SC(C)(C)C(=O)O)cc1 [Compound 138, 4-(1-Carboxy-1-methyl-ethylsulfanyl)-benzoic acid (R)-2-[1-(4-tert-butyl-benzyl)-1H-1,2,3-triazol-4-yl]-1-methyl-ethyl ester]	> 1000	1 to 50	> 1000
CCCn1c(COC(=O)c2ccc(OC(C)(C)C(=O)O)c(C)c2)nn(Cc2ccc(C(C)(C)C)cc2)c1=O [Compound 266, 4-(1-Carboxy-1-methyl-ethoxy)-3-methyl-benzoic acid 1-(4-tert-butyl-benzyl)-5-oxo-4-propyl-4,5-dihydro-1H-1,2,4-triazol-3-ylmethyl ester]	> 1000	201 to 999	> 1000
C[C@@H](OC(=O)c1ccc(SC(C)(C)C(=O)O)cc1)c1cn(Cc2ccc(SC(F)(F)F)cc2)nn1 [Compound 136, 4-(1-Carboxy-1-methyl-ethylsulfanyl)-benzoic acid (R)-1-[1-(4-trifluoromethylsulfanyl-benzyl)-1H-1,2,3-triazol-4-yl]-ethyl ester]	> 1000	1 to 50	51 to 200
